# From patent EP1374909A2, “Evaluation of, delivery of, and use of agents to treat heart disorders” (THE GENERAL HOSPITAL CORPORATION, priority 1997, dated 1999)
# System: neonatal cardiomyocytes
# Test: Intracellular Ca2+ measurements (fura 2) and cell shortening detection
# Format: cell-based, rats
# Details: maximal isoproterenol stimulation; uninfected and Ad.RSV.PL-infected (10 pfu/cell) cardiomyocytes, 1 Hz
# Method: Spontaneously beating cardiomyocytes were prepared from 1 to 2 day old rats and cultured in P-10 medium (GIBCO,BRL) in the presence of 5% fetal calf serum and 10% horse serum for 3 days as described previously in Kang J.X. et al., Proc. Natl. Acad. Sci. U.S.A., 1995, 92:[…] and Kang J.X. and Leaf A., Euro. J. Pharmacol., 1996, 297:97-106, the contents of which are incorporated herein by reference. Measurements of cell shortening and cytosolic Ca^2+ were performed on neonatal cardiomyocytes cultured on round, coated, glass coverslips (0.1 mm thickness, 31 mm diameter) in 35 mm culture dishes. Cells were counted using a hemocytometer. Approximately 5x10^5 cells were plated in each coverslip.
# Measurements of intracellular Ca^2+ and cell shortening were performed as described earlier in Hajjar et al. (1997), Kang et al. (1995) and Kang et al (1996), the contents of which are incorporated herein by reference. […] A dual excitation spectrofluorometer (IONOPTIX) was used to record fluorescence emissions (505 nm) elicited from exciting wavelengths of 360 and 380 nm. […] High-contrast microspheres attached to the cell surface of the cardiomyocytes were imaged using a charge-coupled device video camera attached to the microscope, and motion along a selected raster line segment who quantified by a video motion detector system (IONOPTIX).
smiles,measurement,value
CC(C)NCC(O)c1ccc(O)c(O)c1 (stereo not shown) [isoproterenol],time course of the Ca^2+ transients,decreased to the same level
